According to patent US20240400553A1, “AMINE BASED MATRIPTASE 2 INHIBITORS AND USES THEREOF” (Disc Medicine, Inc., priority 2023, published 2024):
pKi: −log10 of the molar value.

Each compound was assayed against T1, Human Recombinant Matriptase 2 (Homo sapiens, UniProt Q8IU80) (assay: Matriptase 2 inhibition, fluorescence based assay (Method I)). Conditions: Table A; Ki of Matriptase-2; read-out: Mat-2 Ki.
T1 construct: made in house
T1 sequence (Q8IU80 1-811): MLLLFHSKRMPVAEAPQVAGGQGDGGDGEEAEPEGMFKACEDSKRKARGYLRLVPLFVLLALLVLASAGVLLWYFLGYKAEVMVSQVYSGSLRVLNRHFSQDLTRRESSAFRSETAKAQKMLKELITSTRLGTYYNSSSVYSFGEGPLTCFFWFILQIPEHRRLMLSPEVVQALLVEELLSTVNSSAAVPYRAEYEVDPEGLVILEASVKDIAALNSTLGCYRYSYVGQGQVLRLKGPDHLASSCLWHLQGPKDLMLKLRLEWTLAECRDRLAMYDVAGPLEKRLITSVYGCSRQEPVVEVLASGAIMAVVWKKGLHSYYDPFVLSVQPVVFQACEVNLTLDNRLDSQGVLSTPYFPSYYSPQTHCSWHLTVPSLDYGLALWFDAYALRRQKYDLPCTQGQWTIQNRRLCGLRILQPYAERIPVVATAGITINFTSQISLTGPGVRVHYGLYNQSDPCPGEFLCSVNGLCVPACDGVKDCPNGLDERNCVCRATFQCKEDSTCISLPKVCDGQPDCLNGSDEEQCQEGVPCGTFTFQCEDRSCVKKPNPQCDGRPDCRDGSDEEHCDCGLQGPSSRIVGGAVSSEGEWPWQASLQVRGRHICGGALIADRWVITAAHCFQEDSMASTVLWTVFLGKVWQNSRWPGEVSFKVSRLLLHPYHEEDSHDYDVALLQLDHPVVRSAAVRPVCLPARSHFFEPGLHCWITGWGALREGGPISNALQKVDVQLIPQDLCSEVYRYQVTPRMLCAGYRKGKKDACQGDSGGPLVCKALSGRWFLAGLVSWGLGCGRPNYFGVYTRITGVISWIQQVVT
Format: biochemical
How it was run: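 In-house recombinant enzyme (3.5 nM), preincubated 30 min with compound, then Boc-Gln-Ala-Arg-AMC substrate (62 μM) in 50 mM Tris pH 7.5, 150 mM NaCl, 0.01% gelatin, 1% DMSO, 25 °C. Fluorescence (Ex 360/Em 480 nm) read 60 min after substrate; IC50 from variable-slope sigmoidal fit of % inhibition.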

| pKi | Compound |
| --- | --- |
| 6.30 to 7.00 | Cc1oc(=O)oc1COC(=O)c1cc2ccc(CN)nc2n1Cc1cc(NS(=O)(=O)Cc2ccsc2)cc2ccccc12 [Compound 178, (5-methyl-2-oxo-2H-1,3-dioxol-4-yl)methyl 6-(aminomethyl)-1-({3-[(thiophen-3-yl)methane-sulfonamido]naphthalen-1-yl}methyl)-1H-pyr-rolo[2,3-b]pyridine-2-carboxylate] |
| 6.30 to 7.00 | NCc1ccc2cc(C(=O)OCCC3CCOCC3)n(Cc3cc(NS(=O)(=O)Cc4ccsc4)cc4ccccc34)c2n1 [Compound 179, 2-(oxan-4-yl)ethyl 6-(aminomethyl)-1-({3-[(thiophen-3-yl)methane-sulfonamido]naphthalen-1-yl}methyl)-1H-pyr-rolo[2,3-b]pyridine-2-carboxylate] |
| 6.30 to 7.00 | COc1ccccc1CS(=O)(=O)Nc1cc(Cn2c(C(=O)O)cc3ccc(CN)nc32)c2ccccc2c1 [Compound 180, 6-(aminomethyl)-1-({3-[(2-methoxyphenyl)-methanesulfonamido]-naphthalen-1-yl}meth-yl)-1H-pyrrolo[2,3-b]-pyridine-2-carboxylic acid] |
| 6.30 to 7.00 | CN(Cc1nccn1C)C(=O)c1cc2ccc(CN)nc2n1Cc1cc(NS(=O)(=O)Cc2ccsc2)cc2ccccc12 [Compound 181, 6-(aminomethyl)-N-methyl-N-[(1-methyl-1H-imidazol-2-yl)meth-yl]-1-({3-{(thiophen-3-yl)methanesulfonamido]-naphthalen-1-yl}methyl)-1H-pyrrolo[2,3-b]pyr-idine-2-carboxamide] |
| ≥ 7.00 | Cc1cccc(C)c1CS(=O)(=O)Nc1cc(Cn2c(C(=O)OC[C@H]3CNCCO3)cc3ccc(CN)nc32)c2ccccc2c1 [Compound 182, [(2R)-morpholin-2-yl]-methyl 6-(aminometh-yl)-1-({3-[(2,6-dimeth-ylphenyl)methanesulfon-amido]naphthalen-1-yl}-methyl)-1H-pyrrolo[2,3-b]pyridine-2-carboxylate] |
| ≥ 7.00 | Cc1cccc(C)c1CS(=O)(=O)Nc1cc(Cn2c(C(=O)NCCC3CCN(C)CC3)cc3ccc(CN)nc32)c2ccccc2c1 [Compound 183, 6-(aminomethyl)-1-({3-[(2,6-dimethylphenyl)-methanesulfonamido]-naphthalen-1-yl}meth-yl)-N-[2-(1-methylpiper-idin-4-yl)ethyl]-1H-pyr-rolo[2,3-b]pyridine-2-carboxamide] |
| ≥ 7.00 | Cc1cccc(C)c1CS(=O)(=O)Nc1cc(Cn2c(C(=O)NCC3CCN(C)CC3)cc3ccc(CN)nc32)c2ccccc2c1 [Compound 184, 6-(aminomethyl)-1-({3-[(2,6-dimethylphenyl)-methanesulfonamido]-naphthalen-1-yl}meth-yl)-N-[(1-methylpiper-idin-4-yl)methyl]-1H-pyrrolo[2,3-b]pyridine-2-carboxamide] |
| ≥ 7.00 | Cc1cccc(C)c1CS(=O)(=O)Nc1cc(Cn2c(C(=O)OCCC3CCN(C)CC3)cc3ccc(CN)nc32)c2ccccc2c1 [Compound 185, 2-(1-methylpiperidin-4-yl)ethyl 6-(aminometh-yl)-1-({3-[(2,6-dimethyl-phenyl)methanesulfon-amido]naphthalen-1-yl}-methyl)-1H-pyrrolo[2,3-b]pyridine-2-carboxylate] |
| ≥ 7.00 | Cc1cccc(C)c1CS(=O)(=O)Nc1cc(Cn2c(C(=O)OCCN3CCN(C)CC3)cc3ccc(CN)nc32)c2ccccc2c1 [Compound 186] |
| ≥ 7.00 | Cc1cccc(C)c1CS(=O)(=O)Nc1cc(Cn2c(C(=O)OCc3cncn3C)cc3ccc(CN)nc32)c2ccccc2c1 [Compound 187, (1-methyl-1H-imidazol-5-yl)methyl 6-(amino-methyl)-1-({3-[(2,6-dimethylphenyl)methane-sulfonamido]naphthalen-1-yl}methyl)-1H-pyr-rolo[2,3-b]pyridine-2-carboxylate] |
| ≥ 7.00 | Cc1cccc(C)c1CS(=O)(=O)Nc1cc(Cn2c(C(=O)OCC3CCN(C)CC3)cc3ccc(CN)nc32)c2ccccc2c1 [Compound 188, (1-methylpiperidin-4-yl)methyl 6-(aminometh-yl)-1-({3-[(2,6-dimethyl-phenyl)methanesulfon-amido]naphthalen-1-yl}-methyl)-1H-pyrrolo[2,3-b]pyridine-2-carboxylate] |
| ≥ 7.00 | Cc1cccc(C)c1CS(=O)(=O)Nc1cc(Cn2c(C(=O)OC[C@H]3COCCN3)cc3ccc(CN)nc32)c2ccccc2c1 [Compound 189, [(3R)-morpholin-3-yl]-methyl 6-(aminomethyl)-1-({3-[(2,6-dimethyl-phenyl)methanesulfon-amido]naphthalen-1-yl}-methyl)-1H-pyrrolo[2,3-b]pyridine-2-carboxylate] |
| ≥ 7.00 | Cc1cccc(C)c1CS(=O)(=O)Nc1cc(Cn2c(C(=O)OCCCN3CCOCC3)cc3ccc(CN)nc32)c2ccccc2c1 [Compound 190, 3-(morpholin-4-yl)prop-yl 6-(aminomethyl)-1-({3-[(2,6-dimethylphen-yl)methanesulfonamido]-naphthalen-1-yl}meth-yl)-1H-pyrrolo[2,3-b]-pyridine-2-carboxylate] |
| ≥ 7.00 | Cc1cccc(C)c1CS(=O)(=O)Nc1cc(Cn2c(C(=O)OCc3nccn3C)cc3ccc(CN)nc32)c2ccccc2c1 [Compound 191, (1-methyl-1H-imidazol-2-yl)methyl 6-(amino-methyl)-1-({3-[(2,6-dimethylphenyl)meth-anesulfonamido]naph-thalen-1-yl}methyl)-1H-pyrrolo[2,3-b]pyridine-2-carboxylate] |
| ≥ 7.00 | COCCN1CCC(COC(=O)c2cc3ccc(CN)nc3n2Cc2cc(NS(=O)(=O)Cc3c(C)cccc3C)cc3ccccc23)CC1 [Compound 192, [1-(2-methoxyethyl)-piperidin-4-yl]methyl 6-(aminomethyl)-1-({3-[(2,6-dimethylphenyl)-methanesulfonamido]-naphthalen-1-yl}meth-yl)-1H-pyrrolo[2,3-b]-pyridine-2-carboxylate] |
| ≥ 7.00 | Cc1cccc(C)c1CS(=O)(=O)Nc1cc(Cn2c(C(=O)O)cc3ccc(CN)nc32)c2ccccc2c1 [Compound 195, 6-(aminomethyl)-1-({3-[(2,6-dimethylphenyl)-methanesulfonamido]-naphthalen-1-yl}methyl)-1H-pyrrolo[2,3-b]pyr-idine-2-carboxylic acid] |
| ≥ 7.00 | Cc1cccc(C)c1CS(=O)(=O)Nc1cc(Cn2c(C(=O)NCCN3CCOCC3)cc3ccc(CN)nc32)c2ccccc2c1 [Compound 196, 6-(aminomethyl)-1-({3-[(2,6-dimethylphenyl)-methanesulfonamido]-naphthalen-1-yl}meth-yl)-N-[2-(morpholin-4-yl)ethyl]-1H-pyrrolo-[2,3-b]pyridine-2-car-boxamide] |
| ≥ 7.00 | CC(=O)N(C)CCOC(=O)c1cc2ccc(CN)nc2n1Cc1cc(NS(=O)(=O)Cc2c(C)cccc2C)cc2ccccc12 [Compound 197, 2-(N-methylacetamido)-ethyl 6-(aminomethyl)-1-({3-[(2,6-dimethylphen-yl)methanesulfonamido]-naphthalen-1-yl}methyl)-1H-pyrrolo[2,3-b]pyr-idine-2-carboxylate] |

Same assay, conditions: Table A; Ki of Matriptase-2 given as class symbols; read-out: Mat-2 Ki

| pKi | Compound |
| --- | --- |
| ≥ 7.00 | Cc1cccc(C)c1CS(=O)(=O)Nc1cc(Cn2c(C(=O)OCC3CCN(C=O)CC3)cc3ccc(CN)nc32)c2ccccc2c1 [Compound 198, (1-formylpiperidin-4-yl)-methyl 6-(aminomethyl)-1-({3-[(2,6-dimethyl-phenyl)methanesulfon-amido]naphthalen-1-yl}-methyl)-1H-pyrrolo[2,3-b]pyridine-2-carboxylate] |
| 6.30 to 7.00 | Cc1cccc(C)c1CS(=O)(=O)Nc1cc(Cn2c(C(=O)OCCN3CCOCC3)cc3ccc(CN)nc32)c2ccccc2c1 [Compound 199, 2-(morpholin-4-yl)ethyl 6-(aminomethyl)-1-({3-[(2,6-dimethylphenyl)-methanesulfonamido]-naphthalen-1-yl}meth-yl)-1H-pyrrolo[2,3-b]-pyridine-2-carboxylate] |
| 6.30 to 7.00 | CNCCOC(=O)c1cc2ccc(CN)nc2n1Cc1cc(NS(=O)(=O)Cc2c(C)cccc2C)cc2ccccc12 [Compound 200, 2-(methylamino)ethyl 6-(aminomethyl)-1-({3-[(2,6-dimethylphenyl)-methanesulfonamido]-naphthalen-1-yl}meth-yl)-1H-pyrrolo[2,3-b]-pyridine-2-carboxylate] |
| 6.30 to 7.00 | Cc1cccc(C)c1CS(=O)(=O)Nc1cc(Cn2c(C(=O)OCCN(C)C)cc3ccc(CN)nc32)c2ccccc2c1 [Compound 201, 2-(dimethylamino)ethyl 6-(aminomethyl)-1-({3-[(2,6-dimethylphenyl)-methanesulfonamido]-naphthalen-1-yl}methyl)-1H-pyrrolo[2,3-b]pyr-idine-2-carboxylate] |
